Data as given in PubChem BioAssay (NCI).
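The compound was tested at five concentrations on cells cultured in 96-well plates, with a 48-hour exposure period. GI50 marks 50% less growth. TGI is the concentration that stops growth completely.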

Key:
Experiment in all cases: inhibition of tumour cell growth, NCI panel, 48 h
COLO 205 colon = test system: COLO 205 colon
SK-MEL-2 melanoma = test system: SK-MEL-2 melanoma
ACHN renal = test system: ACHN renal
SNB-75 CNS = test system: SNB-75 CNS
786-0 renal = test system: 786-0 renal
A498 renal = test system: A498 renal
NCI-H522 lung = test system: NCI-H522 lung
OVCAR-8 ovarian = test system: OVCAR-8 ovarian
MDA-MB-435 = test system: MDA-MB-435
MCF7 breast = test system: MCF7 breast

| Compound | TGI (COLO 205 colon) [µM] | TGI (SK-MEL-2 melanoma) [µM] | TGI (ACHN renal) [µM] | TGI (SNB-75 CNS) [µM] | TGI (786-0 renal) [µM] | TGI (A498 renal) [µM] | TGI (NCI-H522 lung) [µM] | TGI (OVCAR-8 ovarian) [µM] | GI50 (MDA-MB-435) [µM] | TGI (MDA-MB-435) [µM] | GI50 (COLO 205 colon) [µM] | GI50 (MCF7 breast) [µM] | TGI (MCF7 breast) [µM] | GI50 (SK-MEL-2 melanoma) [µM] | GI50 (ACHN renal) [µM] | GI50 (SNB-75 CNS) [µM] | GI50 (786-0 renal) [µM] | GI50 (A498 renal) [µM] | GI50 (OVCAR-8 ovarian) [µM] | GI50 (NCI-H522 lung) [µM] |
| --- | --- | --- | --- | --- | --- | --- | --- | --- | --- | --- | --- | --- | --- | --- | --- | --- | --- | --- | --- | --- |
| CCCCCCCCCCCCCC(=O)NCC(OCC)OCC | > 100 | > 100 | > 100 | > 100 | > 100 | > 100 | > 100 | > 100 |  |  |  |  |  |  |  |  |  |  |  |  |
| COc1ccc2ccccc2c1CN1CCOCCOCCN(Cc2c(OC)ccc3ccccc23)CCOCCOCC1 | > 100 | 97.4 | > 100 | > 100 | > 46.4 | > 100 | > 89.8 | > 100 |  |  |  |  |  |  |  |  |  |  |  |  |
| CC1=C(/C=C/C(C)=C/C=C/C(C)=C/C=C/C=C(C)/C=C/C=C(C)/C=C/C2=C(C)C(=O)C(O)CC2(C)C)C(C)(C)CC(O)C1=O (stereo not drawn) | > 100 | > 100 | > 100 | > 100 | > 100 | > 100 | > 100 | > 100 |  |  |  |  |  |  |  |  |  |  |  |  |
| N#Cc1c(C[n+]2ccccc2)c2ccccc2oc1=O | > 100 | > 100 | > 100 | > 100 | > 100 |  | > 100 | > 100 |  |  |  |  |  |  |  |  |  |  |  |  |
| COc1cc2c3c(ncc2c(OC)c1OC)-c1cc2c(cc1C3)OCO2 | > 100 | 45.3 | 47.2 | > 100 | > 100 |  |  |  | > 100 | > 100 | > 100 | 15.6 | 59 | 11.7 | 20.7 | > 100 | 33.7 |  |  |  |
| O=C(O)Cc1ccccc1CCc1ccccc1Cl | > 100 | 91.7 |  | > 100 | > 100 | > 100 | > 100 | > 100 |  |  |  |  |  |  |  |  |  |  |  |  |
| CCOC(=O)C1=C(Nc2ccc(Cl)c(Cl)c2)OC/C1=N\NC(=O)Cc1ccccc1 | > 100 | > 100 |  | > 100 | > 100 | > 100 | > 100 | > 100 |  |  |  |  |  |  |  |  |  |  |  |  |
| COC(=O)[C@]1(C)C(OC)=CC(=O)C2C1[C@H]1CCC[C@@H]21 (stereo partly drawn) | > 100 | > 100 | > 100 | > 100 | > 100 | > 100 | > 100 | > 100 |  |  |  |  |  |  |  |  |  |  |  |  |
| COc1cc(/C=C/c2ccc(OC)c(OC)c2OC)cc(OC)c1OC | 33.3 | 36.1 | > 92.2 | 56.7 | 51.6 | > 73.9 | > 51.6 | > 87.1 |  |  |  |  |  |  |  |  |  |  |  |  |
| COc1cc(C2c3cc4c(cc3[C@@H](OCCN(C)C)C3COC(=O)[C@H]23)OCO4)cc(OC)c1O (stereo partly drawn) | 16 | 4.03 | 0.197 | 3.75 | 0.663 | 0.713 | 1.7 | 2.17 |  |  |  |  |  |  |  |  |  |  |  |  |
| O=C1CCN2CCC(=O)c3c2c(cc2ccccc32)N1 | > 100 | > 100 | > 100 | > 100 | > 100 | > 100 | > 100 | > 100 |  |  |  |  |  |  |  |  |  |  |  |  |
| C/C=C(/C)c1cnc(CC(C)C)c(=O)[nH]1 | > 100 | > 100 | > 100 | > 100 | > 100 | > 100 |  | > 100 |  | > 100 |  |  |  |  |  |  |  |  |  |  |
| Clc1ccc2c(c1)[nH]c1c2nc2sccn21 | > 100 | > 100 | > 100 | > 100 | > 100 | > 100 | > 100 | > 100 |  |  |  |  |  |  |  |  |  |  |  |  |
| COc1c(Sc2ccccc2)cc(Sc2ccccc2)c2cccnc12 | 39 | 42.6 | > 100 | 66 | 65.9 | 82.3 |  | > 100 |  |  |  |  |  |  |  |  |  |  |  |  |
| CS(=O)(=O)NNS(=O)(=O)c1ccc(Cl)cc1 | > 100 | > 100 | > 100 | > 100 | > 100 | > 100 | > 100 | > 100 |  |  |  |  |  |  |  |  |  |  |  |  |
| Clc1ccc(-c2c(C3=NCCN3)nnn2-c2ccccc2)cc1 | > 100 | > 100 | > 100 | > 100 | > 100 | > 100 | > 100 | > 100 |  |  |  |  |  |  |  |  |  |  |  |  |
| COc1cc(C2c3cc4c(cc3[C@@H](N(C)C)[C@H]3COC(=O)C23)OCO4)cc(OC)c1O (stereo partly drawn) | > 100 | > 100 | > 100 | > 100 | > 100 | 56 | 18.8 | 80.1 |  |  |  |  |  |  |  |  |  |  |  |  |
| CCOC(=O)c1c2c(n(Cc3ccccc3)c1C)-c1nc(Cc3ccccc3)[nH]c1C(=O)C2=O | 3.33 | 4.13 | 3 | 2.81 | 3.29 | 3.17 |  | 4.99 |  |  | 1.83 | 1.66 | 4.34 | 1.69 | 1.64 | 1.49 | 1.77 | 1.74 | 2.03 |  |

| Compound | TGI (COLO 205 colon) [µM] | TGI (SK-MEL-2 melanoma) [µM] | TGI (ACHN renal) [µM] | TGI (SNB-75 CNS) [µM] | TGI (786-0 renal) [µM] | TGI (A498 renal) [µM] | TGI (NCI-H522 lung) [µM] | TGI (OVCAR-8 ovarian) [µM] | GI50 (MDA-MB-435) [µM] | TGI (MDA-MB-435) [µM] | GI50 (COLO 205 colon) [µM] | GI50 (MCF7 breast) [µM] | TGI (MCF7 breast) [µM] | GI50 (SK-MEL-2 melanoma) [µM] | GI50 (ACHN renal) [µM] | GI50 (SNB-75 CNS) [µM] | GI50 (786-0 renal) [µM] | GI50 (A498 renal) [µM] | GI50 (OVCAR-8 ovarian) [µM] | GI50 (NCI-H522 lung) [µM] |
| --- | --- | --- | --- | --- | --- | --- | --- | --- | --- | --- | --- | --- | --- | --- | --- | --- | --- | --- | --- | --- |
| COc1ccccc1NC(=O)C1=C(C)NC(C)=C(C(=O)Nc2ccccc2OC)C1c1ccc(N(C)C)cc1 | 92.1 | 48.2 | > 100 | 80.6 | > 100 | > 100 | 53.7 | 77.3 |  |  |  |  |  |  |  |  |  |  |  |  |
| COC(=O)c1ccc(C(=O)OC)c2nc3cc(C)ccc3nc12 | > 100 | > 100 | > 100 | > 100 | > 100 | > 100 |  | > 100 |  |  |  |  |  |  |  |  |  |  |  |  |
| CN1C(=O)C2C=CC1C1CCC2N(C)C1=O (stereo not drawn) | > 100 | > 100 |  | > 100 | > 100 | > 100 | > 100 | > 100 |  |  |  |  |  |  |  |  |  |  |  |  |
| CC(/C=C/NNC1=NC(c2ccccc2)C(c2ccccc2)=NN1)Sc1ccccc1N (stereo not drawn) | 31 | 21.2 | 22.2 | 14 | 13.6 | 26.6 | 11.7 | 19.5 |  |  |  |  |  |  |  |  |  |  |  |  |
| NC(=O)c1csc(C2CCC(CO)O2)n1 (stereo not drawn) | > 100 | > 100 | > 100 |  | > 100 | > 100 | > 100 | > 100 |  |  |  |  |  |  |  |  |  |  |  |  |
| S=P(N1CCCC1)(N1CC1)N1CC1 | > 100 | > 100 | > 100 | > 100 | > 100 | > 100 | > 100 | > 100 |  |  |  |  |  |  |  |  |  |  |  |  |
| Cc1cccc(N=C2NC(=O)C(CC(=O)Nc3ccc(C)cc3C)S2)c1 (stereo not drawn) |  | > 100 | > 100 | > 100 | > 100 | > 100 | > 100 | > 100 |  |  |  |  |  |  |  |  |  |  |  |  |
| O=c1cc(-c2ccccn2)[nH]c2cc(F)ccc12 | > 100 |  | > 100 | > 100 | > 100 |  | > 100 | > 100 |  |  |  |  |  |  |  |  |  |  |  |  |
| C[C@]12CC[C@H]3[C@@H](CC[C@]4(O)C[C@@H](O)CC[C@]34CO)[C@@]1(O)CC[C@@H]2C1=CC(=O)OC1 | 29.7 | 8.23 | 7.08 | 34.3 | 11.7 | 5.1 | 4.94 | 3.82 |  | 9.45 |  |  |  |  |  |  |  |  |  |  |
| CC1(O)CCC2(C)C(=O)C1(C)CCC21OCCO1 (stereo not drawn) | > 100 | > 100 | > 100 |  | > 100 |  | > 100 | > 100 |  |  |  |  |  |  |  |  |  |  |  |  |
| COC(=O)c1cc(-c2ccc(OC)cc2)[nH]c1N/N=C/c1c(Cl)cccc1Cl | 2.93 | 8.2 | 4.42 | 0.725 | 4.79 | 3.43 | 0.491 | 5.16 |  |  | 0.846 | 0.107 | 0.887 | 0.377 | 0.316 | 0.161 | 0.331 | 0.185 | 0.442 | 0.0877 |
| COC(=O)[C@H]1N[C@@H](C(=O)OC)C23CCC[C@H]2CC[C@]1(C(OC)OC)C3 | > 100 | > 100 | > 100 | > 100 | > 100 | > 100 | > 100 | > 100 |  |  |  |  |  |  |  |  |  |  |  |  |
| Cc1c(C(=O)CC(=O)C(=O)Nc2cc(Cl)ccc2Cl)[n+](=O)c2ccccc2n1[O-] | 69.6 | > 100 | > 100 | 78.1 | > 100 | > 100 | 53.6 | > 100 |  |  |  |  |  |  |  |  |  |  |  |  |
| CC1=NOC(=O)C1N=Nc1ccc(Br)c(C)c1 (stereo not drawn) | 52.9 | 30.7 | 32 | 60.5 | 38.8 | 36.2 |  | 32.7 |  |  |  |  |  |  |  |  |  |  |  |  |
| Nc1ccc(C(=O)CC2(O)C(=O)Nc3c(Cl)cc(Cl)cc32)cc1 (stereo not drawn) | > 100 | > 100 | > 100 | > 100 | > 100 | > 100 | > 100 | > 100 |  |  |  |  |  |  |  |  |  |  |  |  |
| COC(=O)C(CC(=O)c1c[nH]c2ccccc12)c1c[nH]c2ccccc12 (stereo not drawn) |  | 44.2 | 37.7 | 58 | 57.7 | 40 |  | 65 |  |  |  |  |  |  |  |  |  |  |  |  |
| CC[C@H](Nc1nc(N)nc(C2CC2)c1C#N)c1nc2cccc(NCc3ccc(C(=O)NO)cc3)c2c(=O)n1-c1ccccc1 | 5.75 | 6.75 | 4.58 | 5.43 | 3.36 | 3.69 | 4.67 |  |  |  | 2.24 | 2.06 | 8.28 | 2.44 | 1.85 | 1.57 | 1.68 | 1.7 |  | 1.69 |
